According to patent US7244712B2, “Aminoglycoside antibiotics and methods of using same” (priority 2004, dated 2007):
Converted amounts (≈) assume the structure as drawn. “Also recorded” adds a separate entry of the source.

Key:
80S ribosome = assay: Fluorescence anisotropy binding to 80S ribosomes; design: species or system yeast (S. cerevisiae); conditions: competition with CRP, yeast ribosomes; read-out: Dissociation constant (KD) with 80S ribosome
Protocol: (§1) After establishing the lack of stereospecificity in the binding of aminoglycosides to the A-site RNA constructs (FIG. 9A-C) where the binding affinity, KD, is about 0.1 μM to about 100 μM, the stereospecificity of aminoglycoside binding to intact ribosomes was determined. Both yeast and E. coli ribosomes were prepared and aminoglycoside binding was measured using fluorescence anisotropy methods. For example, fluorescence anisotropy methods recited in Wang, Y., and Rando, R. R. Chem. Biol. (1995) 2, 281-290; and Wang, Y., Hamasaki, K., and Rando, R. R. Biochemistry (1997) 36,768-779. CRP was used as the binding probe. […] Binding data reported herein for aminoglycoside compounds with eukaryotic yeast ribosomes are similar to binding data for said aminoglycoside compounds with ribosoimes in bacteria and with eukaryotic A-site rRNA constructs.
(§2) 5-Carboxytetramethylrhodamine-labeled paromomycin (CRP) and tobramycin (CRT) concentrations were determined spectroscopically at 550 nm using a molar extinction coefficient of 6.00×10 4 M −1 cm −1. Fluorescence anisotropy measurements were performed on a Perkin-Elmer LS-50B luminescence spectrometer equipped with a thermostat accurate to ±0.1° C. as indicated previously (Wang, Y., Hamasaki, K., & Rando, R. R. (1997) Biochemistry 36, 768-779). The tracer solution was excited at 550 nm and monitored at 580 nm. The integration time was 5 s. For every point, 6 measurements were taken, and their average values were used for calculation. Measurements were carried out in a buffer solution containing 150 mM NaCl, 5 mM KCl, 1 mM CaCl2, 1 mM MgCl2, and 20 mM HEPES (pH 7.5). Prior to measurements, RNA constructs were renatured by incubating in binding buffer {150 mM NaCl, 5 mM KCl, 1 mM CaCl2, 1 mM MgCl2, and 20 mM HEPES (pH 7.5)} for 3 minutes at 90° C. followed by slow cooling to 25° C.
(§3) Equation 1 was used for the determination of the dissociation constant (Kd) for the interactions between RNA or ribosome and CRP. A=A0+DA{(RNA)0+(CRP)0+Kd−({(RNA)0+(CRP)0+Kd}^2−4(RNA)0(CRP)0)½}/2 where A and A0 are the fluorescence anisotropy of CRP in the presence and absence of RNA, respectively, and DA is the difference between the fluorescence anisotropy of CRP in the presence of an extrapolated infinite concentration of RNA minus the fluorescence anisotropy in the absence of RNA. (RNA)0 and (CRP)0 are the initial concentrations of RNA and CRP, respectively.
(§4) Equation 2 is used for the calculation of the KD values in the competition binding assay. (aminoglycoside)0={KD(A−−A)/Kd(A−A0)+1}{(RNA)0−Kd(A−A0)/(A−−A)−(CRP)0(A−A0)/(A−−A)} where KD is the dissociation constant between the RNA and the aminoglycosides; (aminoglycoside)0 is the initial concentration of the aminoglycosides; AL is anisotropy of completely bound tracer. Both Kd and KD were determined by non-linear curve fitting using the equations described above, and are presented as mean values of three independent measurements.
The purification of yeast 80S ribosomes from S. cerevisiae strain YSB 758 was carried out according to the published procedure (Verschoor, A., Warner, J. R., Srivastava, S., Grassucci, R. A., & Frank, J. (1997) Nucl. Acid Res. 26, 655-661). S. cerevisiea YSB 758 were grown for 12 hrs at 30° C. in 2L of YPD medium, containing: 20 g bacto peptone, 20 g glucose, 10 g yeast extract and 0.15 g tryptophan per 1 L, pH 7.0. The cells were lysed by 5-10 cycles of 1 min vigorous shaking with glass beads with a vortex, followed by cooling on ice. Clarified cell extract (about 9 mL total, used in 6 portions in 1.5 mL aliqouts) was carefully loaded on top of 2 mL of a cushion, composed of 10% sucrose and 5% ammonium sulfate dissolved in buffer YR1 (20 mM HEPES pH=7.4, 16 mM magnesium chloride, 100 mM potassium chloride, 5 mM DTT, and 0.5 mM EDTA). The ribosomes were collected by centrifugation in Beckman TL100.3 rotor at 75000 rpm for 3 h. The supernatants were carefully discarded and ribosomes were collected in buffer YR1. […]

[1] = tested on: E. coli (ATCC 25922) transformed with pMM plasmid bearing APH(3')IIa; assay: MIC, kanamycin/neomycin resistant E. coli; type: cell-based; conditions: growth inhibition greater than 90%
Protocol: (§5) E. coli (ATCC 25922) and P. aeruginosa (ATCC 27853) (BD Bioscience) were inoculated in 3 mL of the medium 2 (U.S. Pharmacopia), containing 6 g peptone, 3 g yeast extract and 1.5 g beef extract per 1 L, pH 6.6, and were grown in a shaker for 6 h at 37° C. until an OD 560=0.6-0.8 was reached.
(§6) Minimal inhibitory concentrations (MIC) were measured according to the published method (Greenberg, W. A., Priestley, E. S., Sears, P. S., Alper, P. B., Rosenbohm, C., Hendrix, M., Hung, S.-C., & Wong, C.-H. (1999) J. Am. Chem. Soc. 121, 6527-6541). E. coli (ATCC 25922) (both wild type and pMM-transformed) and P. aeruginosa (ATCC 27853) were grown in medium 2 to an optical density OD 600 of 0.6-0.8. The inoculi were diluted to OD 600 ˜0.1 in medium 2 and 1 mL of the culture was placed in 13 mL test tubes. The desired concentrations of antibiotic were added from stock solutions. […] The absorbance at 600 nm of each sample was read and MIC was taken as the lowest antibiotic concentration inhibiting bacterial growth by greater than 90%.

70S ribosome = assay: Fluorescence anisotropy binding to 70S ribosomes; conditions: competition with CRP, E. coli ribosomes; read-out: Dissociation constant (KD) with 70S ribosome
Protocol: as §1, §2, §3, §4
The purification of E. coli (E600) 70S ribosomes was carried out according to the published procedure (Lazaro, E., van den Broek, L. A. G. M., Felix, A. S., Ottenheijm, H. C. J., Ballesta, J. P. G. (1991) Biochemistry 30, 9642-9648). E. coli MRE600 were grown for 12 h in 6L of LB medium (10 g trypton, 5 g yeast extract, 5 g NaCl per 1 L, pH 7.0) at 37° C. Crude ribosomes were precipitated from clarified supernatant by 4 h centrifugation at 25,000 rpm in Beckman SW 28 rotor at 4° C. The ribosome pellets were collected in 5 mL of buffer BR1, containing 10 mM HEPES, pH 7.5, 500 mM ammonium acetate, 100 mM magnesium chloride and 2.5 mM DTT. The ribosome suspension was centrifuged for 20 min at 15000 rpm to be clarified. The clarified sample was loaded over two layers of 20% and 40% sucrose in buffer BR1 and centrifuged for 18 hr at 19000 rpm in Beckman SW28 rotor at 4° C. […]

[2] = tested on: P. aeruginosa (ATCC 27853); assay: MIC, P. aeruginosa; type: cell-based; conditions: growth inhibition greater than 90%
Protocol: as §6

E. coli (ATCC 25922) [3] = assay: Bactericidal activity (bactericide index); type: cell-based; conditions: 3 h incubation, FIG. 8
Protocol: The bactericidal activity of each antibiotic was investigated at concentrations of 0.5-4×MIC in medium E. coli (ATCC 25922) inoculum was added to 0.5 mL medium 2 to OD 600 ˜0.1 together with different antibiotic concentrations. The samples were incubated at 37° C. for 3 hrs, and the bacteria were collected by centrifugation. The bacterial pellets were washed with 0.5 mL of medium 2 and were plated on 1.5% medium 2 agar in 100 mm Petri dishes. The plates were incubated for 1-2 days at 37° C. and mean log 10 change in viable count was calculated and plotted vs drug concentration.

E. coli (ATCC 25922) [4] = assay: MIC, wild type E. coli; type: cell-based; conditions: growth inhibition greater than 90%
Protocol: as §6

[5] = tested on: E. coli (ATCC 25922) transformed with the plasmid pMM, bearing the APH(3')IIa gene; assay: Antibiotic activity disk assay, kanamycin/neomycin resistant E. coli; type: cell-based; conditions: FIG. 7B
Protocol: as §5
For the antibiotic disk assay, […] of each bacterial inoculum was mixed with 10 mL of melted agar (1.5% medium 2 agar, BD Bioscience) at 50-55° C. and poured onto 100 mm Petri dishes. Sterile Whatmann 3 MM 5 mm paper disks were soaked with antibiotic solutions and allowed to dry. The disks were positioned evenly on the surface of bacterial-inoculated solid agar and the plates were incubated at 37° C. for 1-2 days. MIC and bactericide index measurements.

[6] = tested on: E. coli S30 extract, containing 70S ribosomes; assay: In vitro protein translation (CAT mRNA, 35S methionine incorporation); type: biochemical; conditions: quantitation of gel bands, read-out: IC50, concentration producing 50% inhibition of translation
Protocol: Protein translation was performed from chloramphenicol acetyl transferase (CAT) mRNA. […] A commercial E. coli ribosomal suspension was supplemented with an E. coli extract containing the required elements for translation. These include translation factors, tRNAs, and aminoacyl tRNA synthases. Plasmid, T7 RNA polymerase and amino acids were added to the reaction mixture, and both transcription and translation steps were performed in the same vial. The effects of the aminoglycosides on the translation process were evaluated by measuring the incorporation of ^35S methionine in the translated chloramphenicol acetyl transferase protein.
In vitro translation was performed by using PROTEINscript™-PRO (Ambion) kit. […] Reaction mixtures contained appropriate concentrations of antibiotic (neomycin B, D- and L-neamine). The protein was translated from CAT mRNA, transcribed from control DNA template containing CAT gene under control of the T7 promotor. The product, ˜25 kDa chloramphenicol acetyl transferase, was labeled during translation with 1 μCi ^35S methionine (New England Nuclear) per reaction (no cold methionine was added).
Following the translation, the samples were analyzed by electrophoresis on 4-20% SDS mini-gels (Invitrogen) for 1.5 h at 120V. Gels were fixed with 40% methanol/10% acetic acid and exposed to Molecular Dynamics phosphoimager plates, which were read on a Personal FX phosphoimager (Bio-Rad) and quantitated using QuantityOne™ software.

NCC1OC(OC2C(N)CC(N)C(O)C2O)C(N)C(O)C1O [D-Neamine]
Kd (80S ribosome): 1.14 ± 0.25 µM
Minimal inhibitory concentration (MIC), E. coli kan/neo resistant [1]: >6400 µM
Kd (70S ribosome): 5.45 ± 0.68 µM
Minimal inhibitory concentration (MIC), P. aeruginosa [2]: 500 µM (≈ 161 µg/mL)
Concentration at which bactericidal effect begins (E. coli (ATCC 25922) [3]): 75 µM
Minimal inhibitory concentration (MIC), E. coli (E. coli (ATCC 25922) [4]): 150 µM (≈ 48.4 µg/mL)
Antibiotic activity in disk assay, kanamycin/neomycin resistant E. coli [5]: selective resistance towards D-neamine; also recorded: essentially abolished
IC50 [6]: 38 µM
